According to ChEMBL document CHEMBL1909046, “DrugMatrix in vitro pharmacology data”:

Key:
[1] = target: T1, Muscarinic acetylcholine receptor M2 (Homo sapiens, UniProt P08172); format: cell membranes, CHO-K1, Membrane; conditions: cho-k1; note: in other assays of this panel Not Active means under 50% inhibition at 10 µM
T1 sequence (P08172 whole entry): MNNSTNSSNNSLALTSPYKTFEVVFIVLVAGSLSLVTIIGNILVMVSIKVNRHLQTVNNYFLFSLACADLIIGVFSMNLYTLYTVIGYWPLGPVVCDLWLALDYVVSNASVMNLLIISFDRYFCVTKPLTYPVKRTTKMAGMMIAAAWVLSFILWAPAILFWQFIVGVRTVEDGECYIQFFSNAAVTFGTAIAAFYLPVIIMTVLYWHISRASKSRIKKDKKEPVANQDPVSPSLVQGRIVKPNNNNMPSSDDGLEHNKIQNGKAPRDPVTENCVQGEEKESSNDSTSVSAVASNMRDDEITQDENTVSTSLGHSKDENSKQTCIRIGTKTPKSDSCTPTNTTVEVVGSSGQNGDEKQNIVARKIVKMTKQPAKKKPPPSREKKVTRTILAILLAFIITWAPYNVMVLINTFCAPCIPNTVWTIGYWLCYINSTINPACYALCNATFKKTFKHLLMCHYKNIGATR

[2] = target: T2, Polyunsaturated fatty acid lipoxygenase ALOX15 (Oryctolagus cuniculus, UniProt P12530); test: biochemical; format: tissue-based, Reticulocytes; conditions: reticulocytes;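 note: inhibition of 15-lipoxygenase enzyme activity measured with linoleic acid as the substrate; in other assays of this panel Not Active means under 50% inhibition at 10 µM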
T2 sequence (P12530 whole entry): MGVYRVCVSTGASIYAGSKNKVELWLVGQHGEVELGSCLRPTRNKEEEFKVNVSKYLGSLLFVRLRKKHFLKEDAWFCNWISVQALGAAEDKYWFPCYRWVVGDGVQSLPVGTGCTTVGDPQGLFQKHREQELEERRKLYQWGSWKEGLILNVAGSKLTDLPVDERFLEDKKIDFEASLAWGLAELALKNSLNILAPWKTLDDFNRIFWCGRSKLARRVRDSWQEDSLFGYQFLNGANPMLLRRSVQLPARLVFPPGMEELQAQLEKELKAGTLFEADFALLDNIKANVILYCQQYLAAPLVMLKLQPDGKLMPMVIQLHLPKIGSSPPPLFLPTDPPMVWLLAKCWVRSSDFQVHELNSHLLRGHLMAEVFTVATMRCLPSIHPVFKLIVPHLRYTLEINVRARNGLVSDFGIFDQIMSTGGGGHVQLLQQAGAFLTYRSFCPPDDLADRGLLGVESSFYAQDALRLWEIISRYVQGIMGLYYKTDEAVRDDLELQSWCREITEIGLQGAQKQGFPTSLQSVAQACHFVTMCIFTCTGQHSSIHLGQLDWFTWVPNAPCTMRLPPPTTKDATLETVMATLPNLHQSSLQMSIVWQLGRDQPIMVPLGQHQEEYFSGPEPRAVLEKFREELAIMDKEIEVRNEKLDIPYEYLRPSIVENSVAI

[3] = target: T3, Nitric oxide synthase, inducible (Mus musculus, UniProt P29477); parameters: species or system Escherichia coli;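 note: inhibition of iNOS enzyme activity measured with L-arginine as substrate; in other assays of this panel Not Active means under 50% inhibition at 10 µM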
T3 sequence (P29477 whole entry): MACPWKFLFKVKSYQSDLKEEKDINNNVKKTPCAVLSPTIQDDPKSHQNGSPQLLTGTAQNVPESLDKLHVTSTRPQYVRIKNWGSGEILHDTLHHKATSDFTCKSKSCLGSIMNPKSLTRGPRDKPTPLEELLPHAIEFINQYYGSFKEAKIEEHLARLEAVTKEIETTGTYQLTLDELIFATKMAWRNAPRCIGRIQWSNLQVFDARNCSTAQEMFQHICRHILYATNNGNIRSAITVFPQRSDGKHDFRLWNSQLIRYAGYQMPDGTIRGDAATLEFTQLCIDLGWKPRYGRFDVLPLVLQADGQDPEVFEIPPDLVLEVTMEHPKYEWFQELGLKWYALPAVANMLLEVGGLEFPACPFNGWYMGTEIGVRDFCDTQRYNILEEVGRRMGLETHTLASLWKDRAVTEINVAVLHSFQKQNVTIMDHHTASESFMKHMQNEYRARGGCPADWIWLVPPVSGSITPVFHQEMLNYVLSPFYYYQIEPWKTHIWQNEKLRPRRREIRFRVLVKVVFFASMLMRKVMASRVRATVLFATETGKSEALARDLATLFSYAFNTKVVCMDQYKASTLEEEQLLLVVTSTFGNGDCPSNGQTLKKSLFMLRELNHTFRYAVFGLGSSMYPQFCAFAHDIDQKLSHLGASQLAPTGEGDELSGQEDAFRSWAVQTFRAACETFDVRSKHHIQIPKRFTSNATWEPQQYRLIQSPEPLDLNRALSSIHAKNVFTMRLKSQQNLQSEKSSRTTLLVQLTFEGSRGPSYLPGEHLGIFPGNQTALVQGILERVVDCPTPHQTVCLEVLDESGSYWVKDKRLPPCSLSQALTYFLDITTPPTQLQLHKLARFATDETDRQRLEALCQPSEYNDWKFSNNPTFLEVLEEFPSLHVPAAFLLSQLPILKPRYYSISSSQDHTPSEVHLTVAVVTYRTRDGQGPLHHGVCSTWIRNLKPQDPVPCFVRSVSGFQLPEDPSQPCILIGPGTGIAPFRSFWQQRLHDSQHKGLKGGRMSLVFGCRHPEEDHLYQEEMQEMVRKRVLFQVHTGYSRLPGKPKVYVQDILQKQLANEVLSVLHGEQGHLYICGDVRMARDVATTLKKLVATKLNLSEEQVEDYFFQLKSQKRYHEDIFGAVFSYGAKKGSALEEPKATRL

[4] = DRUGMATRIX: Glutamate, NMDA, Agonism radioligand binding (ligand: [3H] CGP-39653); format: cell membranes, Rattus norvegicus, Wistar, Cerebral cortex, Membrane; conditions: Not Active = under 50% inhibition at 10 µM
Nitric oxide synthase 1 = Nitric oxide synthase 1 (Rattus norvegicus, UniProt P29476); format: tissue-based, Cerebellum; note: in other assays of this panel Not Active means under 50% inhibition at 10 µM
[5] = target: Protein kinase C alpha type (Homo sapiens, UniProt P17252); format: cell-based; conditions: sf9
[6] = target: T4, C-C chemokine receptor type 4 (Homo sapiens, UniProt P51679); format: cell membranes, Membrane; conditions: chem-1; note: in other assays of this panel Not Active means under 50% inhibition at 10 µM
T4 sequence (P51679 whole entry): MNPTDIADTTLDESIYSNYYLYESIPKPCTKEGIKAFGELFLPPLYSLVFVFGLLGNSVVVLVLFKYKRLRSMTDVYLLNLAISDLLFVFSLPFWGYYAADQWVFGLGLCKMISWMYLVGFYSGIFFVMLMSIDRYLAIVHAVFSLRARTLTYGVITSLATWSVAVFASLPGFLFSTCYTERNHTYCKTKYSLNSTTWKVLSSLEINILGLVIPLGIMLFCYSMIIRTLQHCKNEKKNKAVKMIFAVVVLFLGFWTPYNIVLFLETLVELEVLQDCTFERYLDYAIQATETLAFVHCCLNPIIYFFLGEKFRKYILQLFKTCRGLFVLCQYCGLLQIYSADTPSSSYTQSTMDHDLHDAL

[7] = target: Kappa-type opioid receptor (Homo sapiens, UniProt P41145); test: DRUGMATRIX: Opiate kappa (OP2, KOP) radioligand binding (ligand: [3H] Diprenorphine); format: cell membranes, HEK293, Membrane; conditions: hek293; Not Active = under 50% inhibition at 10 µM
Chain of Kappa-type opioid receptor (P41145 whole entry): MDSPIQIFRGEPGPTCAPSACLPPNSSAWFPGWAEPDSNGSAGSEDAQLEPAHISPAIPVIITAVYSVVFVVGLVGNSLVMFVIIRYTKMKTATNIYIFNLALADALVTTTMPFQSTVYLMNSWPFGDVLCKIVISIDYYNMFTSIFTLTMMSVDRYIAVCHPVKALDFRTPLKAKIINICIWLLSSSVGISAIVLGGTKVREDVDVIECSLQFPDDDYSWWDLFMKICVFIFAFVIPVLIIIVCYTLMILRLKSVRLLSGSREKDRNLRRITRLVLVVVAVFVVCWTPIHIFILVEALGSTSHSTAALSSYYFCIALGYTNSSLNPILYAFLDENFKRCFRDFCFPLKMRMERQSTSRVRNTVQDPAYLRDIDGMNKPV

Chain of Nitric oxide synthase 1 (P29476 whole entry): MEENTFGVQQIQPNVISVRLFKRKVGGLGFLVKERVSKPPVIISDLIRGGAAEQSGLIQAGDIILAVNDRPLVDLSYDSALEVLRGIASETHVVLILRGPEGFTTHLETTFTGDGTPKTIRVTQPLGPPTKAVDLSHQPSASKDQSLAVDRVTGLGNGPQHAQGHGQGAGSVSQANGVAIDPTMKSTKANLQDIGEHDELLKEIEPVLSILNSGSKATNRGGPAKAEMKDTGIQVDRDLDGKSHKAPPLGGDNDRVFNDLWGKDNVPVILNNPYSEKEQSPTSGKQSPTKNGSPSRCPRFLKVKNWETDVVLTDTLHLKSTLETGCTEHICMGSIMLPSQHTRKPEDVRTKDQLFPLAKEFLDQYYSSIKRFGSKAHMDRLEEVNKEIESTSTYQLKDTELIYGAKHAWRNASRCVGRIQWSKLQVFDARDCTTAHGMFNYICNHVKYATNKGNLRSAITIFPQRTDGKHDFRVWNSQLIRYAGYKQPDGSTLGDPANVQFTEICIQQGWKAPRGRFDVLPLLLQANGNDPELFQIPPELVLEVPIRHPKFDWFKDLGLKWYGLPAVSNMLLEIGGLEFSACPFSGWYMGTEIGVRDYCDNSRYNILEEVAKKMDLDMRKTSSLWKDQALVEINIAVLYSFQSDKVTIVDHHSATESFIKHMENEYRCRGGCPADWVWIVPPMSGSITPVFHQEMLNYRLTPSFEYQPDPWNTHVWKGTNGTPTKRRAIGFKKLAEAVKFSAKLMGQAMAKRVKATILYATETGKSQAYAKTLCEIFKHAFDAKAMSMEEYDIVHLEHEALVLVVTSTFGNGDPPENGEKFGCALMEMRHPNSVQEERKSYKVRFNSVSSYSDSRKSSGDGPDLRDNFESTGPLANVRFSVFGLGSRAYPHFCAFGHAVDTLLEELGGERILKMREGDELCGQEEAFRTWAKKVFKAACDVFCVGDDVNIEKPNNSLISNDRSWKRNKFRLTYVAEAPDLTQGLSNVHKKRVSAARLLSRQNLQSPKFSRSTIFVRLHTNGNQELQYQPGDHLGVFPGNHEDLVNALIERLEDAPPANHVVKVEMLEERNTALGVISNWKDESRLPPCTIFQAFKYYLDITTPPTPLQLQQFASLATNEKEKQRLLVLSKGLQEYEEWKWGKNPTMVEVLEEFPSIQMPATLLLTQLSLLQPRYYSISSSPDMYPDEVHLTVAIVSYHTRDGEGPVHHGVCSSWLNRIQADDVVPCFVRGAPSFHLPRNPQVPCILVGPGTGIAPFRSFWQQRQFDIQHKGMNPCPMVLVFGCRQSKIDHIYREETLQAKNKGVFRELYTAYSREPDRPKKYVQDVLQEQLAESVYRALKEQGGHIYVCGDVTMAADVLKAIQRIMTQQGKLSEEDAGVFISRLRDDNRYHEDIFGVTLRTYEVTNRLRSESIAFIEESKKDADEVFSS

COc1c(N2CCNC(C)C2)c(F)cc2c(=O)c(C(=O)O)cn(C3CC3)c12 (configuration not stated) [GATIFLOXACIN]
Not Active: IC50 [1] | IC50 [2] | IC50 [3] | IC50 [4] | Ki [4] | IC50 (Nitric oxide synthase 1) | IC50 [5] | IC50 [6] | IC50 [7]

Nc1nc(=O)[nH]cc1F [FLUCYTOSINE]
Not Active: IC50 [1] | IC50 [2] | IC50 [3] | IC50 [4] | Ki [4] | IC50 (Nitric oxide synthase 1) | IC50 [5] | IC50 [6] | IC50 [7]

O=c1[nH]cc(F)c(=O)[nH]1 [FLUOROURACIL]
Not Active: IC50 [1] | IC50 [2] | IC50 [3] | IC50 [4] | Ki [4] | IC50 (Nitric oxide synthase 1) | IC50 [5] | IC50 [6] | IC50 [7]

O=C(O)c1cn(C2CC2)c2cc(N3CCNCC3)c(F)cc2c1=O [CIPROFLOXACIN]
Not Active: IC50 [1] | IC50 [2] | IC50 [3] | IC50 [4] | Ki [4] | IC50 (Nitric oxide synthase 1) | IC50 [5] | IC50 [6] | IC50 [7]

OCc1ccccc1 [BENZYL ALCOHOL]
Not Active: IC50 [1] | IC50 [2] | IC50 [3] | IC50 [4] | Ki [4] | IC50 (Nitric oxide synthase 1) | IC50 [5] | IC50 [6] | IC50 [7]

CC1(C)[C@@H](O[C@H]2O[C@H](C(=O)O)[C@@H](O)[C@H](O)[C@H]2O[C@@H]2O[C@H](C(=O)O)[C@@H](O)[C@H](O)[C@H]2O)CC[C@]2(C)[C@H]3C(=O)C=C4[C@@H]5C[C@@](C)(C(=O)O)CC[C@]5(C)CC[C@@]4(C)[C@]3(C)CC[C@@H]12 [GLYCYRRHIZIN]
Not Active: IC50 [1] | IC50 [2] | IC50 [3] | IC50 [4] | Ki [4] | IC50 (Nitric oxide synthase 1) | IC50 [5] | IC50 [6] | IC50 [7]

CNC(=O)Oc1ccc2c(c1)[C@]1(C)CCN(C)[C@@H]1N2C [PHYSOSTIGMINE]
Not Active: IC50 [1] | IC50 [2] | IC50 [3] | IC50 [4] | Ki [4] | IC50 (Nitric oxide synthase 1) | IC50 [5] | IC50 [6] | IC50 [7]

O=C1OC2(c3ccc(O)cc3Oc3cc(O)ccc32)c2ccccc21 [FLUORESCEIN]
Not Active: IC50 [1] | IC50 [2] | IC50 [3] | IC50 [4] | Ki [4] | IC50 (Nitric oxide synthase 1) | IC50 [5] | IC50 [6] | IC50 [7]

CC1COc2c(N3CCN(C)CC3)c(F)cc3c(=O)c(C(=O)O)cn1c23 (configuration not stated) [OFLOXACIN]
Not Active: IC50 [1] | IC50 [2] | IC50 [3] | IC50 [4] | Ki [4] | IC50 (Nitric oxide synthase 1) | IC50 [5] | IC50 [6] | IC50 [7]

COc1ccc([C@@H]2Sc3ccccc3N(CCN(C)C)C(=O)[C@@H]2OC(C)=O)cc1 [DILTIAZEM]
Not Active: IC50 [1] | IC50 [2] | IC50 [3] | IC50 [4] | Ki [4] | IC50 (Nitric oxide synthase 1) | IC50 [5] | IC50 [6] | IC50 [7]

O=C1OCCN1/N=C/c1ccc([N+](=O)[O-])o1 [FURAZOLIDONE]
Not Active: IC50 [1] | IC50 [2] | IC50 [3] | IC50 [4] | Ki [4] | IC50 (Nitric oxide synthase 1) | IC50 [5] | IC50 [6] | IC50 [7]

CC(C)(S)[C@@H](N)C(=O)O [PENICILLAMINE]
Not Active: IC50 [1] | IC50 [2] | IC50 [3] | IC50 [4] | Ki [4] | IC50 (Nitric oxide synthase 1) | IC50 [5] | IC50 [6] | IC50 [7]

Cc1ccccc1N1CCN(CCc2nnc3n2CCCC3)CC1 [DAPIPRAZOLE]
Not Active: IC50 [1] | IC50 [2] | IC50 [3] | IC50 [4] | Ki [4] | IC50 (Nitric oxide synthase 1) | IC50 [5] | IC50 [6] | IC50 [7]
